According to article PMC8623418, “Novel Multitarget Hydroxamic Acids with a Natural Origin CAP Group against Alzheimer’s Disease: Synthesis, Docking and Biological Evaluation” (Pharmaceutics, 2021):

Assays:
5xFAD transgenic mice [1] = assay: Ex vivo electron transport chain activity of brain mitochondria (Seahorse OCR); type: in vivo; conditions: brain mitochondrial p2 fraction of treated 5xFAD mice
Protocol: (§1) At the end of the in vivo series of experiments, the animals’ brains were sampled for further measurement of the lipid peroxidation level, as well as glutathione content in mouse brain homogenates. A synaptosomal p2 fraction containing mitochondria was also isolated to investigate the bioenergetic characteristics of organelles.
The study on the effect of the electron transport chain complexes was carried out on a preparation of the mitochondrial p2 fraction of the brain (10 µg/well) using the Agilent Seahorse XF96e Analyzer (Seahorse Bioscience, Santa Clara, CA, USA) to measure the rate of oxygen uptake under the action of modulators. For this purpose, the activators of the electron transport chain complex I-glutamate/malate, the inhibitor of complex I, rotenone (2 µM), the substrate of complex II, potassium succinate ([…]), the inhibitor of complex III, antimycin A, and the substrates of complex IV, ascorbate, were used/TMPD (0.5 µM).
To evaluate mitochondrial functioning, we determined the functioning of the respiratory chain complexes using Seahorse Bioanalyzer. […] However, the oxygen consumption rate (OCR) was increased in transgenic animals treated with the test compounds.

5xFAD transgenic mice [2] = assay: Ex vivo total glutathione in mouse brain homogenate; conditions: post-mortem, versus 5xFAD mice
Protocol: as §1
The performance of the glutathione system of the cell’s own antioxidant defense was evaluated using a commercially available kit (Glutathione Assay Kit, Sigma Aldrich, Saint Louis, MO, USA) in accordance with the protocol provided by the manufacturer. The total glutathione level was determined by spectrophotometric measurement at a wavelength of 412 nm by the amount of 2-nitro-5-thiobenzoic acid, a product formed during the reduction of GSH 5,5′-dithiobis-(2-nitrobenzoic acid).
The glutathione content was estimated using the method based on measurement of the absorption of a colored compound formed during the colorimetric reaction of DTNB with SH groups of glutathione. […] Therefore, the level of lipid peroxidation of mouse brain homogenates was also measured by its final product, malondialdehyde. […]

5xFAD transgenic mice [3] = assay: Open field test in 5xFAD mice; type: in vivo; conditions: 15 mg/kg i.p. for 20 days, 11-month-old male 5xFAD mice
Protocol: All animal procedures were approved by the Animal Care and Use Committee of IPAC RAS. For in vivo studies, 11-month-old male mice of the 5xFAD line (Tg(APPSwFlLon,PSEN1*M146L*L286V) 6799Vas/J) were used. The animals were housed in cages with free access to water and food in a room with a 12 h/12 h light–dark cycle, at a temperature of 23 ± 1 °C and humidity of 50 ± 5%. Before the series of experiments, animals were randomly divided into four groups (n = 8 per group): (1) wild-type group (C57BL6/j mouse line); (2) 5xFAD group; (3) 5xFAD + 15 group; and (4) 5xFAD + 25 group.
Both compounds 15 and 25 were dissolved in saline solution and DMSO (10%) immediately before use and intraperitoneally administered to animals for 20 days at a dose of 15 mg/kg body weight for experiments. In the control group, the vehicle solution (saline and DMSO (10%), intraperitoneal) was administered with the same time schedule.
The open field box consisted of a square, non-transparent, grey box (40 cm × 40 cm × 40 cm). Illumination intensity was kept at 50 lux. During a session, a single animal was allowed to explore the empty open field, and its baseline level of activity was measured. The session lasted for 10 min (Figure 5A). […] The number of standing events was manually counted in a blind manner by one observer. […]

## O=C(CCCCCCC(=O)NC1C2CC3CC(C2)CC1C3)NO (stereo not drawn) [compound 15, N^1-(Adamant-2-yl)-N^8-Hydroxyoctanediamide]
other
  melting point: 133.6 °C
5xFAD transgenic mice [1]; complex II
  Oxygen consumption rate (OCR) after injection of succinate: 251.00 ± 10.45 pmol/min
5xFAD transgenic mice [1]; complex IV
  Oxygen consumption rate (OCR) after injection of ascorbate: 422.67 ± 14.61 pmol/min
5xFAD transgenic mice [2]
  Total glutathione content in brain: tended to recover this parameter
5xFAD transgenic mice [3]
  Open field: standing events, distance, movement rate, time in central and peripheral areas: did not show any alteration

## O=C(/C=C/c1ccc(C(=O)NO)cc1)NC1C2CC3CC(C2)CC1C3 (stereo not drawn) [compound 25, 4-((E)-3-((-Adamantan-2-yl)amino)-3-Oxoprop-1-en-1-yl)-N-Hydroxybenzamide]
5xFAD transgenic mice [3]
  Open field: standing events, distance, movement rate, time in central and peripheral areas: did not show any alteration
